Data published in patent EP0044212B1, “Herbicidal o-alkylsulfonyloxy- and o-alkylsulfonylamino-benzenesulfonamides” (E.I. DU PONT DE NEMOURS AND COMPANY, priority 1980, dated 1982).

How the values were obtained:
[1] = system: Kochia; assay: Test D pre-/post-emergence weed control in cereals; format: in vivo, Kochia scoparia; conditions: 20 days
Description: (§1) Two ten-inch in diameter plastic pans lined with polyethylene liners were filled with prepared Fallsington slit loam soil. One pan was planted with seeds of wheat (Triticum aestivum), barley (Hordeum vulgarel, wild oats (Avena fatua), downy brome (Bromus tectorum), cheatgrass (Bromus secalinus), blackgrass (Alopecurus myosuroides), annual bluegrass (Poa annual, green foxtail (Setaria viridis), quack grass (Agropyron repens), Italian ryegrass (Lolium multiflorum) and ripgut brome (Bromus rigidus). The other pan was planted with seeds of Russian thistle (Salsola kali), tansy mustard (Descuraina pinnata), smartweed (Polygonum pensylvanicum), tumble mustard (Sisymbrium altissium) kochia (Kochia scoparia), shepherd's purse (Capsella bursa-pastoris), Matricaria inodora, black nightshade (Solanum nigrum), yellow rocket (Barbarea vulgaris), wild mustard (Brassica kaber) and wild buckwheat (Polygonum convolvulus). The above two pans were treated pre-emergence. At the same time two pans in which the above plant species were growing were treated post-emergence. Plant height at the time of treatment ranged from 1-15 cm depending on plant species.
(§2) The compounds applied were diluted with a non-phytotoxic solvent and sprayed over-the-top of the pans. An untreated control and a solvent alone control were included for comparison. All treatments were maintained in the greenhouse for 20 days at which time the treatments were compared to the controls and the effects visually rated. The recorded data, presented in Table D, indicate that certain compounds from within the scope of the invention have utility for pre- and/or post-emergence weed control in cereal crops such as wheat and barley.

[2] = system: Shepherd's Purse; assay: Test D pre-/post-emergence weed control in cereals; format: in vivo, Capsella bursa-pastoris; conditions: 20 days
Description: as §1, with “Plant height at the time of treatment ranged from 1-15 cm depending on plant species.” left out
(§3) The compounds applied were diluted with a non-phytotoxic solvent and sprayed over-the-top of the pans. […] The recorded data, presented in Table D, indicate that certain compounds from within the scope of the invention have utility for pre- and/or post-emergence weed control in cereal crops such as wheat and barley.

[3] = system: Italian Ryegrass; assay: Test D pre-/post-emergence weed control in cereals; format: in vivo, Lolium multiflorum; conditions: 20 days
Description: as §1, §2

[4] = system: Downy Brome; assay: Test D pre-/post-emergence weed control in cereals; format: in vivo, Bromus tectorum; conditions: 20 days
Description: as §1, §2

[5] = system: rice and corn; assay: Crop selectivity statement (greenhouse tests); format: in vivo; conditions: summary statement
Description: (§4) The activity of the compounds of formula I was investigated in a number of greenhouse tests.

[6] = system: Tansy Mustard; assay: Test D pre-/post-emergence weed control in cereals; format: in vivo, Descuraina pinnata; conditions: Pre-Emergence; 0.015 kg/ha; 20 days
Description: as §1, with “Plant height at the time of treatment ranged from 1-15 cm depending on plant species.” left out
as §3

[7] = system: Yellow Rocket; assay: Test D pre-/post-emergence weed control in cereals; format: in vivo, Barbarea vulgaris; conditions: 0.06 kg/ha, 20 days
Description: as §1, with “Plant height at the time of treatment ranged from 1-15 cm depending on plant species.” left out
as §3

[8] = system: Wild Mustard; assay: Test D pre-/post-emergence weed control in cereals; format: in vivo, Brassica kaber; conditions: 20 days
Description: as §1, §2

[9] = system: Wild Oats; assay: Test D pre-/post-emergence weed control in cereals; format: in vivo, Avena fatua; conditions: 20 days
Description: as §1, §2

[10] = system: soybeams; assay: Crop selectivity statement (greenhouse tests); format: in vivo; conditions: summary statement
Description: as §4

[11] = system: Oats; assay: Test C pre-emergence on Fallsington silt loam soil; format: in vivo, Clinton oats; conditions: 0.03 kg/ha, 28 days
Description: (§5) The high herbicidal activity of two of the compounds from within the scope of the invention is evident from the results obtained in this test. The experiment concerned pre-emergence applications on soil. The containers used were 25 cm diameter plastic pots filled with Fallsington silt loam. One set of pots was planted to weeds, the seeds of which were uniformly mixed with the top 1.2 cm layer of soil. The species selected were: johnsongrass (Sorghum halepense), barnyardgrass (Echinochloa crusgalli), crabgrass (Digitaria sanguinalis), giant foxtail (Setaria faberii), velvetleaf (Abutilon theophrasti), jimsonweed (Datura stramonium), mustard (Brassica arvensis), and pigweed (Amaranthus retroflexus). Another set of pots were planted to the following crops with from one to four species per pot: corn (planting depth 3.7 cm), cotton, soybeans, sunflower, Clinton oats, wheat, Black Valentine beans, rice, sorghum, peas, flax, and peanuts (all at 2.5 cm depth), cucumbers, cabbage, alfalfa, safflower, sugarbeets, tomato, spinach, barley, and Kentucky bluegrass (all at 1.2 cm depth). Immediately after planting, the test chemical was applied to the soil surfaces dissolved in a non-phytotoxic solvent. One pot from the weed phase and one of each of the crop species were left untreated for the purpose of comparison. […]

[12] = system: Cucumber; assay: Test C pre-emergence on Fallsington silt loam soil; format: in vivo, cucumbers; conditions: 0.03 kg/ha, 28 days
Description: as §5

[13] = system: Bean; assay: Test C pre-emergence on Fallsington silt loam soil; format: in vivo, Black Valentine beans; conditions: 0.03 kg/ha, 28 days
Description: as §5

[14] = system: Rice; assay: Test C pre-emergence on Fallsington silt loam soil; format: in vivo; conditions: 0.03 kg/ha, 28 days
Description: (§6) The high herbicidal activity of two of the compounds from within the scope of the invention is evident from the results obtained in this test. The experiment concerned pre-emergence applications on soil. The containers used were 25 cm diameter plastic pots filled with Fallsington silt loam. One set of pots was planted to weeds, the seeds of which were uniformly mixed with the top 1.2 cm layer of soil. The species selected were: johnsongrass (Sorghum halepense), barnyardgrass (Echinochloa crusgalli), crabgrass (Digitaria sanguinalis), giant foxtail (Setaria faberii), velvetleaf (Abutilon theophrasti), jimsonweed (Datura stramonium), mustard (Brassica arvensis), and pigweed (Amaranthus retroflexus). Another set of pots were planted to the following crops with from one to four species per pot: corn (planting depth 3.7 cm), cotton, soybeans, sunflower, Clinton oats, wheat, Black Valentine beans, rice, sorghum, peas, flax, and peanuts (all at 2.5 cm depth), cucumbers, cabbage, alfalfa, safflower, sugarbeets, tomato, spinach, barley, and Kentucky bluegrass (all at 1.2 cm depth). Immediately after planting, the test chemical was applied to the soil surfaces dissolved in a non-phytotoxic solvent. One pot from the weed phase and one of each of the crop species were left untreated for the purpose of comparison. The treated and untreated pots were promptly watered with approximatley 4 mm of simultated rainfall and then held in a greenhouse for several weeks. Visual weed and crop response ratings were made 28 days after treatment utilizing the rating system as described above for Test A. The data are given in Table C.

[15] = system: Sunflower; assay: Test C pre-emergence on Fallsington silt loam soil; format: in vivo; conditions: 0.03 kg/ha, 28 days
Description: as §6

[16] = system: Wheat; assay: Test C pre-emergence on Fallsington silt loam soil; format: in vivo; conditions: 0.03 kg/ha, 28 days
Description: as §6

[17] = system: Barley; assay: Test C pre-emergence on Fallsington silt loam soil; format: in vivo; conditions: 0.03 kg/ha, 28 days
Description: as §6

[18] = system: Tomato; assay: Test C pre-emergence on Fallsington silt loam soil; format: in vivo; conditions: 0.03 kg/ha, 28 days
Description: as §6

[19] = system: Flax; assay: Test C pre-emergence on Fallsington silt loam soil; format: in vivo; conditions: 0.03 kg/ha, 28 days
Description: as §6

[20] = system: Peanut; assay: Test C pre-emergence on Fallsington silt loam soil; format: in vivo, peanuts; conditions: 0.03 kg/ha, 28 days
Description: as §5

[21] = system: Soybean; assay: Test C pre-emergence on Fallsington silt loam soil; format: in vivo, soybeans; conditions: 0.03 kg/ha, 28 days
Description: as §5

Structure (SMILES): CCCS(=O)(=O)Oc1ccccc1S(=O)(=O)NC(=O)Nc1nc(OC)cc(OC)n1 [Compound 36, N-[(4,6-dimethoxypropimidin-2-yl)aminocarbonyl]-2-hydroxybenzenesulfonamide, 1-propanesulfonate]
- Kochia response rating ([1]; Post-Emergence, 0.015 kg/ha): 0
- Kochia response rating ([1]; Post-Emergence, 0.06 kg/ha): 0
- Kochia response rating ([1]; Pre-Emergence, 0.015 kg/ha): 0
- Shepherd's Purse response rating ([2]; Post-Emergence, 0.06 kg/ha): 10C
- Shepherd's Purse response rating ([2]; Pre-Emergence, 0.015 kg/ha): 7G
- Italian Ryegrass response rating ([3]; Post-Emergence, 0.015 kg/ha): 0
- Italian Ryegrass response rating ([3]; Post-Emergence, 0.06 kg/ha): 0
- Italian Ryegrass response rating ([3]; Pre-Emergence, 0.015 kg/ha): 1G
- Italian Ryegrass response rating ([3]; Pre-Emergence, 0.06 kg/ha): 3G
- Downy Brome response rating ([4]; Post-Emergence, 0.015 kg/ha): 0
- Downy Brome response rating ([4]; Post-Emergence, 0.06 kg/ha): 3G
- Downy Brome response rating ([4]; Pre-Emergence, 0.015 kg/ha): 3G
- Downy Brome response rating ([4]; Pre-Emergence, 0.06 kg/ha): 6G
- selectivity on rice and corn [5]: shows selectivity on rice and corn
- Tansy Mustard response rating [6]: 2G
- Yellow Rocket response rating ([7]; Post-Emergence): 10C
- Yellow Rocket response rating ([7]; Pre-Emergence): 10C
- Wild Mustard response rating ([8]; Post-Emergence, 0.015 kg/ha): 10C
- Wild Mustard response rating ([8]; Post-Emergence, 0.06 kg/ha): 10C
- Wild Mustard response rating ([8]; Pre-Emergence, 0.06 kg/ha): 10C
- Wild Oats response rating ([9]; Post-Emergence, 0.015 kg/ha): 0
- Wild Oats response rating ([9]; Post-Emergence, 0.06 kg/ha): 0
- Wild Oats response rating ([9]; Pre-Emergence, 0.015 kg/ha): 0
- Wild Oats response rating ([9]; Pre-Emergence, 0.06 kg/ha): 0

Structure (SMILES): CCCS(=O)(=O)Oc1ccccc1S(=O)(=O)NC(=O)Nc1nc(C)nc(OC)n1 [Compound 39, 2-hydroxy-N-[(4-methoxy-6-methyl-1,3,5-triazin-2-yl)aminocarbonyl]benzenesulfonamide, 1-propanesulfonate]
- selectivity on soybeams [10]: shows selectivity on soybeams

Structure (SMILES): COc1cc(OC)nc(NC(=O)NS(=O)(=O)c2ccccc2OS(C)(=O)=O)n1 [Compound 1, N-[(4,6-Dimethoxypyrimidin-2-yl)aminocarbonyl]-2-hydroxybenzenesulfonamide, methanesulfonate]
- Oats response rating [11]: 4G
- Cucumber response rating [12]: 5G
- Bean response rating [13]: 0
- Rice response rating [14]: 6G
- Sunflower response rating [15]: 5G
- Wheat response rating [16]: 2G
- Barley response rating [17]: 3G
- Tomato response rating [18]: 4G
- Flax response rating [19]: 6G
- Peanut response rating [20]: 6G
- Soybean response rating [21]: 4G, 2lH
